Experimental data reported in PMC5189922 (Journal of medicinal chemistry, 2016).
“Also recorded” adds a separate entry of the source.

Key:
[1] = Hot water; format: in vivo, mice; conditions: for antinociceptive effect in tail-flick assay: male B6-SJL mice, 10 s cutoff
[2] = molecular target: human κ-opioid receptor (Homo sapiens, UniProt P41145); format: cell-based
[3] = Accelerating rotarod performance assay
[4] = Conditioned place preference; conditions: male Sprague Dawley rats, vs vehicle
[5] = system: human µ-opioid receptor β-arrestin-2; assay: MOR-mediated β-arrestin-2 recruitment; format: cell-based
[6] = molecular target: human µ-opioid receptor (Homo sapiens, UniProt P35372); format: cell-based
[7] = Cumulative dose-response tail-flick assay and tolerance evaluation; format: in vivo, mice; conditions: cumulative dosing, day 9 after daily 10 mg/kg s.c. on days 2–8 (tolerance)

human µ-opioid receptor, sequence (P35372 whole entry): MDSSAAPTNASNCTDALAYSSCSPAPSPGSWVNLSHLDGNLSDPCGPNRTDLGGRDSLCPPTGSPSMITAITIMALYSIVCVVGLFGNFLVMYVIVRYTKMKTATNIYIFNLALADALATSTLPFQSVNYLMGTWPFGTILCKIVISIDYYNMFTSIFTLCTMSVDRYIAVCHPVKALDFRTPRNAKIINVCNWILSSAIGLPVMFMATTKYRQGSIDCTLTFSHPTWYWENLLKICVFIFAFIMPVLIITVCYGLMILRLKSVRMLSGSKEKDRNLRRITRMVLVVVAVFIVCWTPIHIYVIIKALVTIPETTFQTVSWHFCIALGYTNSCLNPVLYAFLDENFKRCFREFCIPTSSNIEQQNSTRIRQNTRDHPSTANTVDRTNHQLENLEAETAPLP
human κ-opioid receptor, sequence (P41145 whole entry): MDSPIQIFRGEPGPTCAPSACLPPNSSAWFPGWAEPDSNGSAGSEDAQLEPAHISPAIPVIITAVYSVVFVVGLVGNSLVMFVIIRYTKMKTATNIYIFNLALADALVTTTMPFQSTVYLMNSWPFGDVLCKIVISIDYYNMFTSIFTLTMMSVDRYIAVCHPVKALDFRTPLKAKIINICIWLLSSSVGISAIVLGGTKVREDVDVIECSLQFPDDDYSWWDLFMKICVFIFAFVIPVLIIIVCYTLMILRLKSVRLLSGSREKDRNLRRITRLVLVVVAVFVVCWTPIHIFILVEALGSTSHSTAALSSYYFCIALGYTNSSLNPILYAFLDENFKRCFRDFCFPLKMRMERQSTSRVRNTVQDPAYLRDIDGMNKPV

Compound: COC(=O)[C@@H]1C[C@H](OC(=O)c2ccccc2)C(=O)[C@H]2[C@@]1(C)CC[C@H]1C(=O)O[C@H](c3ccoc3)C[C@]21C [Compound 2, herkinorin, reference compound]
- antinociceptive effect in tail-flick assay ([1]; 1, 5, and 10 mg/kg i.p.): no significant antinociceptive effects
- activity at KORs (in words) [2]: partial agonist
- motor coordination on rotarod ([3]; dose not given, data not shown): no observable effect on motor co-ordination
- conditioned place preference (CPP score) ([4]; 5 mg/kg): Neither 5 (5 and 10 mg/kg) nor 2 (5 mg/kg) were significantly different to vehicle
- EC50 ([5]; read-out: β-arrestin-2 recruitment EC50): > 3000 nM

Compound: CC(=O)O[C@@H]1C[C@H](NC(=O)c2ccccc2)C(=O)[C@H]2[C@@]1(C)CC[C@H]1C(=O)O[C@H](c3ccoc3)C[C@]21C [Compound 3, herkamide, reference compound]
- Selectivity κ/µ [6]: >3 000

Compound: COC(=O)[C@@H]1C[C@@H](OC(=O)c2ccccc2)C(=O)[C@H]2[C@@]1(C)CC[C@H]1C(=O)O[C@H](c3ccoc3)C[C@]21C [Compound 4]
- activity at KORs (in words) [2]: complete loss of activity
- activity at MORs (in words) [6]: complete loss of activity

Compound: COC(=O)[C@@H]1C=C(OC(=O)c2ccccc2)C(=O)[C@H]2[C@@]1(C)CC[C@H]1C(=O)O[C@H](c3ccoc3)C[C@]21C [Compound 5, (2S,4aR, 6aR,7R,10aR,10bR)-Methyl 9-((benzoyl)oxy)-2-(furan-3-yl)-6a,10b-dimethyl-4,10-dioxo-2,4,4a,5,6,6a,7,10,10a,10b-decahydro-1H-benzo[f]isochromene-7-carboxylate]
- time of maximal antinociceptive effects ([1]; 10 mg/kg i.p.): 30 min
- antinociceptive effect in tail-flick assay ([1]; 5 and 10 mg/kg i.p., vs vehicle): significant antinociceptive effects
- antinociceptive effect after naloxone pre-treatment ([1]; naloxone 10 mg/kg s.c. 45 min pre-treatment): blocked
- activity at KORs (in words) [2]: no activity
- motor coordination / sedation on rotarod ([3]; 10 mg/kg i.p., 4 to 40 rpm over 300 s): slight sedation only at the 15 min time point
- conditioned place preference (CPP score) ([4]; 5 mg/kg and 10 mg/kg i.p.): CPP score similar to the vehicle control; also recorded: Neither 5 (5 and 10 mg/kg) nor 2 (5 mg/kg) were significantly different to vehicle
- Emax ([5]; read-out: % Efficacy ± SEM): 96 ± 3%
- EC50 antinociception day 9 [7]: 7.9 mg/kg

Compound: COC(=O)[C@@H]1C=C(O)C(=O)[C@H]2[C@@]1(C)CC[C@H]1C(=O)O[C@H](c3ccoc3)C[C@]21C [Compound 7a, Methyl-(2S,4aR,6aR/S,7R,10aR,10bR)-2-(furan-3-yl)-9-hydroxy-6a,10b-dimethyl-4,10-dioxo-2,4,4a,5,6,6a,7,10,10a,10b-decahydro-1H-;benzo[f]isochromene-7-carboxylate]
- activity at KORs (in words) [2]: active

Compound: COC(=O)[C@@H]1CC(=O)C(O)=C2[C@@]1(C)CC[C@H]1C(=O)O[C@H](c3ccoc3)C[C@]21C [Compound 7b, Methyl-(2S,4aR,6aS,7R,10bS)-2-(furan-3-yl)-10-hydroxy-6a,10b-dimethyl-4,9-dioxo-1,4,4a,5,6,6a,7,8,9,10b-decahydro-2H-benzo[f]isochromene-7-carboxylate]
- activity at KORs (in words) [2]: completely inactive

Compound: CC(=O)O[C@@H]1C=C(OC(=O)c2cccc(F)c2)C(=O)[C@H]2[C@@]1(C)CC[C@H]1C(=O)O[C@H](c3ccoc3)C[C@]21C [Compound 9b]
- Selectivity κ/µ [6]: >2 000
